Results as given in patent publication US11939402B2, “Antifungal peptides, compounds including the same, and methods of use thereof” (priority 2022, dated 2024).
In brackets after ≈: the same amount, converted by molar mass. Where a SMILES comes first, the peptide text is derived from it. The star is where a group is joined. Palmitoyl = CCCCCCCCCCCCCCCC(=O)*; Myristoyl = CCCCCCCCCCCCCC(=O)*; Decanoyl = CCCCCCCCCC(=O)*; Hexanoyl = CCCCCC(=O)*

Assays:
[1] = test system: C. neoformans cdc50Δ mutant strain; assay type: cell-based, Cryptococcus neoformans; details: for FIC ug/mL ΔCDC50 Peptide: concentration of the peptide in combination with caspofungin; for FIC Index ΔCDC50: peptide with caspofungin, ΔCDC50 (table S1)
Description: The Fractional Inhibitory Concentration Index were calculated as follows: […]

[2] = test system: C. neoformans cells; assay: AF350-Annexin V / propidium iodine flow cytometry assay (exofacial phosphatidylserine); assay type: cell-based, Cryptococcus neoformans; details: 0.128 mg/mL peptide, 20 minutes at 25° C.; control 0.2±0.1%
Description: Stock microbes were defrosted from the −80° C. freezer and were passed twice for 48 hours each in YPD media. The YPD media was removed by spinning down and the supernatant was decanted. Pelletized cells were resuspended in 1 mL PBS media and washed for 5 minutes with incubation at 25° C. and 250 RPM. Washed cells were spun down again and suspended in 1 mL of PBS solution. cells were diluted 20-fold into 1 mL fungal working solution in an eppendorf. Cell concentration was quantified via comparison to 1× McFarlain's standard on a plate reader using the absorbance value at 530 nm. An aliquot of 1*10^6 cells in 100 μL was created (1*10^7 cell/mL). […] The cells were incubated for 20 minutes at 25° C. and 250 RPM. Baseline and experimental samples were prepared in triplicate. Cells were stained using an operating concentration of 0.001 mg/mL Propidium Iodine (PI) and a 40-fold dilution of AlexaFluor 350 labelled annexin V as per manufactures instructions. After staining the cells, samples were spun down and supernatant decanted. Cells were then fixed in 4% formaldehyde for 5 minutes. Fixed cells were spun down and supernatant decanted and resuspended in 400 μL 1% formaldehyde for flowcytometry. Samples were collected at a slow flow rate on a MACS Quant 10 device (Miltenyi Biotech, Auburn, CA) with 20,000 events collected per injection.
It was sought to determine whether the activities of the peptides were related to the lipid-flipping activity of the P4-ATPase. […] The intensity of the AF350-annexin V signal corresponds to concentration of PS on the exofacial side of the membrane. The propidium iodine signal corresponds to cell viability.
Single cells were first selected and gated based on morphology to ensure homogeneity among the cell population (4A, 4B). Cells with low propidium iodine intensity (PI-A<9 RU) and high AF350-annexin V intensity (Annexin V-A>9 RU) (4C, 4D) were examined. Under these gating parameters there should be, respectively, low non-specific cell death and high exofacial PS.

[3] = test system: C. neoformans wild type strain H99; assay: microbe, parasite or virus in culture; assay type: cell-based, Cryptococcus neoformans; details: for MIC ug/mL H99: wild-type H99, read at 24 and 48 hours, 37° C.; for MIC ug/mL H99 / MIC: alone; for MIC: against C. neoformans H99 wild type
Description: The assays followed standard CLSI protocol for broth microdilution assays using yeasts.(32) Microbes were passaged in YPD media at 37° C. with mixing for 2 days before harvesting with an inoculation loop to prepare monocultures on Sabouraud Dextrose Agar (SDA) plates. Monocultures on SDA plates were incubated for 2 days at 37° C. before harvesting cells for microdilution assays. RPMI media (100 μL) was charged to each of the 96 wells in a 96 well plate, with an additional 100 μL in the first column. […] The 100 μL was serially diluted by a factor of 2 from the first column to the 11th column. Microbe inoculant was then prepared. An inoculation loop was used to transfer 1-3 colonies of cells to 1 mL phosphate buffer solution (PBS). The PBS and microbe solution was made uniform by vortex mixing. Cell concentration was computed by comparing the absorbance at 530 nm to 1× McFarland standard solution and multiplying the resulting ratio by 10^7 cell/mL conversion factor. Plate inoculant was prepared by diluting the PBS microbe solution to 5000 cell/mL, in RPMI media. A 100 μL aliquot of cells was transferred to each of the wells on the plate other than column 11 for the no growth control. The operating volume was 200 μL, with 500 CFU per well for a final concentration of 2.5*10^3 cells/mL.

[4] = test system: C. neoformans wild type strain H99; details: for FIC ug/mL H99 Peptide: concentration of the peptide in combination with caspofungin
Description: Microbes were prepared in the same manner as the MIC assay. […] 100 μL of RPMI media was added to the first 8 wells in the first row. […] The 100 μL of media with drug was serially diluted from the first row to the final row. […] Column 11 was the no growth control, and 12 was the no drug control. The plate was inoculated with microbes in the same manner as the MIC assay. Again, 200 uL was the operating volume, 500 CFU per well, 2.5*10^3 cell/mL. Plates were incubated for 48 hours at 37° C. and read thereafter. The Fractional Inhibitory Concentration Index were calculated as follows:
Where the MICA and MICB are the MIC values of drugs A and B alone and FICA and FICB are the Fractional Inhibitory concentrations of drugs A and B in the presence of each other, respectively.

[5] = test system: C. neoformans cdc50Δ mutant strain; assay type: cell-based, Cryptococcus neoformans; details: alone
Description: The assays followed standard CLSI protocol for broth microdilution assays using yeasts.(32) Microbes were passaged in YPD media at 37° C. with mixing for 2 days before harvesting with an inoculation loop to prepare monocultures on Sabouraud Dextrose Agar (SDA) plates. Monocultures on SDA plates were incubated for 2 days at 37° C. before harvesting cells for microdilution assays. RPMI media (100 μL) was charged to each of the 96 wells in a 96 well plate, with an additional 100 μL in the first column. Peptide-DMSO solution (4 μL) at 12.8 mg/mL was charged to each of the wells in the first column. The 100 μL was serially diluted by a factor of 2 from the first column to the 11th column. Microbe inoculant was then prepared. An inoculation loop was used to transfer 1-3 colonies of cells to 1 mL phosphate buffer solution (PBS). The PBS and microbe solution was made uniform by vortex mixing. Cell concentration was computed by comparing the absorbance at 530 nm to 1× McFarland standard solution and multiplying the resulting ratio by 10^7 cell/mL conversion factor. Plate inoculant was prepared by diluting the PBS microbe solution to 5000 cell/mL, in RPMI media. A 100 μL aliquot of cells was transferred to each of the wells on the plate other than column 11 for the no growth control. The operating volume was 200 μL, with 500 CFU per well for a final concentration of 2.5*10^3 cells/mL.

CCCCCCCCCCCCCC(=O)N[C@@H](CO)C(=O)N[C@@H](CCC(=O)O)C(=O)N[C@@H](CO)C(=O)NCC(=O)N[C@H](C(=O)N[C@@H](C)C(=O)N[C@@H](Cc1c[nH]c2ccccc12)C(=O)NCC(=O)NCC(=O)N[C@H](C(=O)N[C@@H](CCCCN)C(=O)N[C@@H](CCCCN)C(=O)N[C@@H](CC(N)=O)C(=O)N[C@@H](Cc1ccc(O)cc1)C(=O)N[C@@H](C)C(=O)O)[C@@H](C)CC)[C@@H](C)CC [AS15-Ma] (Myristoyl-SESGIAWGGIKKNYA-OH)
FIC ug/mL ΔCDC50 Peptide [1]: 0.25 µg/mL
FIC Index ΔCDC50 [1]: 0.094
percentage of cells with low propidium iodine intensity (PI-A<9 RU) and high AF350-annexin V intensity (Annexin V-A>9 RU) [2]: 12.1±2.0%
MIC ug/mL H99 [3]: >128 µg/mL
MIC of caspofungin in the presence of peptide ([4]; 0.5 μg/mL peptide, H99, caspofungin alone 16 μg/mL): 8 µg/mL
FIC ug/mL H99 Peptide ([4]; H99): 0.5 µg/mL
FIC Index H99 ([4]; peptide with caspofungin, H99 (table S1)): 0.5-1
MIC ug/mL ΔCDC50 [5]: 8 µg/mL (≈ 4.47 µM)

CCCCCCCCCCCCCCCC(=O)N[C@@H](Cc1c[nH]c2ccccc12)C(=O)NCC(=O)NCC(=O)N[C@H](C(=O)N[C@@H](CCCCN)C(=O)N[C@@H](CCCCN)C(=O)N[C@@H](CC(N)=O)C(=O)N[C@@H](Cc1ccc(O)cc1)C(=O)N[C@@H](C)C(=O)O)[C@@H](C)CC [AW9-Pa] (Palmitoyl-WGGIKKNYA-OH)
FIC ug/mL ΔCDC50 Peptide [1]: 1 µg/mL
FIC ug/mL H99 Peptide ([4]; H99): 0.5 µg/mL

CCCCCCCCCCCCCC(=O)N[C@@H](Cc1ccc(O)cc1)C(=O)N[C@H](C(=O)N[C@@H](CC(=O)O)C(=O)NCC(=O)N[C@@H](Cc1ccccc1)C(=O)N1CCC[C@H]1C(=O)N[C@@H](CC(N)=O)C(=O)N[C@@H](CC(C)C)C(=O)N[C@@H](CCCNC(=N)N)C(=O)N[C@@H](CCC(=O)O)C(=O)N[C@@H](CC(=O)O)C(=O)N[C@@H](CCC(=O)O)C(=O)N[C@@H](Cc1c[nH]cn1)C(=O)N[C@@H](Cc1ccccc1)C(=O)N[C@@H](CCC(N)=O)C(=O)O)C(C)C [QY15-Ma] (Myristoyl-YVDGFPNLREDEHFQ-OH)
FIC ug/mL ΔCDC50 Peptide [1]: 0.5 µg/mL
FIC Index ΔCDC50 [1]: 0.25
MIC ug/mL H99 [3]: >128 µg/mL
FIC ug/mL H99 Peptide ([4]; H99): 0.5 µg/mL
MIC ug/mL ΔCDC50 [5]: 128 µg/mL (≈ 61.6 µM)

CCCCCCCCCCCCCC(=O)N[C@@H](Cc1c[nH]c2ccccc12)C(=O)NCC(=O)NCC(=O)N[C@H](C(=O)N[C@@H](C)C(=O)N[C@@H](C)C(=O)N[C@@H](CC(N)=O)C(=O)N[C@@H](Cc1ccc(O)cc1)C(=O)N[C@@H](C)C(=O)O)[C@@H](C)CC [K5A;K6A-Ma] (Myristoyl-WGGIAANYA-OH)
percentage of cells with low propidium iodine intensity (PI-A<9 RU) and high AF350-annexin V intensity (Annexin V-A>9 RU) [2]: 1.3±0.9%
MIC [3]: >128 µg/mL

H-YVDGFPNLREDEHFQ-OH [QY15]
FIC ug/mL ΔCDC50 Peptide [1]: 0.5 µg/mL
FIC Index ΔCDC50 [1]: 0.5-1
MIC ug/mL H99 [3]: >128 µg/mL
FIC ug/mL H99 Peptide ([4]; H99): 0.5 µg/mL
MIC ug/mL ΔCDC50 [5]: >128 µg/mL

H-SESGIAWGGIKKNYA-OH [AS15]
FIC ug/mL ΔCDC50 Peptide [1]: 0.5 µg/mL
FIC Index ΔCDC50 [1]: 0.25
growth in MIC plate wells compared to the no drug control ([3]; visual inspection of the MIC plates, H99): stronger and more confluent growth
MIC ug/mL H99 [3]: >128 µg/mL
FIC ug/mL H99 Peptide ([4]; H99): 0.5 µg/mL
MIC ug/mL ΔCDC50 [5]: 128 µg/mL

CCCCCCCCCCCCCC(=O)N[C@@H](CO)C(=O)NCC(=O)N[C@H](C(=O)N[C@@H](C)C(=O)N[C@@H](Cc1c[nH]c2ccccc12)C(=O)NCC(=O)NCC(=O)N[C@H](C(=O)N[C@@H](CCCCN)C(=O)O)[C@@H](C)CC)[C@@H](C)CC [KS9-Ma] (Myristoyl-SGIAWGGIK-OH)
MIC ug/mL H99 [3]: >128 µg/mL
MIC ug/mL ΔCDC50 [5]: >128 µg/mL

CCCCCCCCCCCCCC(=O)N[C@@H](Cc1c[nH]c2ccccc12)C(=O)NCC(=O)NCC(=O)N[C@H](C(=O)N[C@@H](C)C(=O)N[C@@H](CCCCN)C(=O)N[C@@H](CC(N)=O)C(=O)N[C@@H](Cc1ccc(O)cc1)C(=O)N[C@@H](C)C(=O)O)[C@@H](C)CC [Peptide K5A-Ma] (Myristoyl-WGGIAKNYA-OH)
percentage of cells with low propidium iodine intensity (PI-A<9 RU) and high AF350-annexin V intensity (Annexin V-A>9 RU) [2]: 5.6±0.1%
MIC [3]: >128 µg/mL

CCCCCC(=O)N[C@@H](CO)C(=O)N[C@@H](CCC(=O)O)C(=O)N[C@@H](CO)C(=O)NCC(=O)N[C@H](C(=O)N[C@@H](C)C(=O)N[C@@H](Cc1c[nH]c2ccccc12)C(=O)NCC(=O)NCC(=O)N[C@H](C(=O)N[C@@H](CCCCN)C(=O)N[C@@H](CCCCN)C(=O)N[C@@H](CC(N)=O)C(=O)N[C@@H](Cc1ccc(O)cc1)C(=O)N[C@@H](C)C(=O)O)[C@@H](C)CC)[C@@H](C)CC [AS15-Ha] (Hexanoyl-SESGIAWGGIKKNYA-OH)
MIC ug/mL H99 [3]: >128 µg/mL
MIC ug/mL ΔCDC50 [5]: >128 µg/mL

CCCCCCCCCCCCCCCC(=O)N[C@@H](CO)C(=O)N[C@@H](CCC(=O)O)C(=O)N[C@@H](CO)C(=O)NCC(=O)N[C@H](C(=O)N[C@@H](C)C(=O)N[C@@H](Cc1c[nH]c2ccccc12)C(=O)NCC(=O)NCC(=O)N[C@H](C(=O)N[C@@H](CCCCN)C(=O)N[C@@H](CCCCN)C(=O)N[C@@H](CC(N)=O)C(=O)N[C@@H](Cc1ccc(O)cc1)C(=O)N[C@@H](C)C(=O)O)[C@@H](C)CC)[C@@H](C)CC [AS15-Pa] (Palmitoyl-SESGIAWGGIKKNYA-OH)
FIC ug/mL ΔCDC50 Peptide [1]: 2 µg/mL
FIC Index ΔCDC50 [1]: 0.53
MIC ug/mL H99 [3]: >128 µg/mL
FIC ug/mL H99 Peptide ([4]; H99): 0.5 µg/mL
MIC ug/mL ΔCDC50 [5]: 128 µg/mL (≈ 70.4 µM)

CCCCCCCCCCCCCC(=O)N[C@@H](Cc1c[nH]c2ccccc12)C(=O)NCC(=O)NCC(=O)N[C@H](C(=O)N[C@@H](CCCCN)C(=O)N[C@@H](C)C(=O)N[C@@H](CC(N)=O)C(=O)N[C@@H](Cc1ccc(O)cc1)C(=O)N[C@@H](C)C(=O)O)[C@@H](C)CC [Peptide K6A-Ma] (Myristoyl-WGGIKANYA-OH)
MIC [3]: >128 µg/mL

Ac-SESGIAWGGIKKNYA-OH [AS15-Aa]
MIC ug/mL H99 [3]: >128 µg/mL
MIC ug/mL ΔCDC50 [5]: >128 µg/mL

CCCCCCCCCC(=O)N[C@@H](CO)C(=O)N[C@@H](CCC(=O)O)C(=O)N[C@@H](CO)C(=O)NCC(=O)N[C@H](C(=O)N[C@@H](C)C(=O)N[C@@H](Cc1c[nH]c2ccccc12)C(=O)NCC(=O)NCC(=O)N[C@H](C(=O)N[C@@H](CCCCN)C(=O)N[C@@H](CCCCN)C(=O)N[C@@H](CC(N)=O)C(=O)N[C@@H](Cc1ccc(O)cc1)C(=O)N[C@@H](C)C(=O)O)[C@@H](C)CC)[C@@H](C)CC [AS15-Da] (Decanoyl-SESGIAWGGIKKNYA-OH)
MIC ug/mL H99 [3]: >128 µg/mL
MIC ug/mL ΔCDC50 [5]: >128 µg/mL
